Source: patent US20240066086A1, “Topical Hyperpigmentation Compositions and Method of Use” (Allergan Sales, LLC, priority 2022, published 2024)

Legend:
Type in all cases: cell-based
[1] = system: human melanoma cell line MNT-1 cells; assay: in vitro melanogenesis / melanin production in MNT-1 cells
Method: In the MNT-1 cell in vitro tests, neferine and liensinine reduced melanin production after seven days by at least 50%, 60%, 70%, 80% or greater at concentrations ranging from 0.1 μM to 5 μM.

primary human melanocyes = assay: in vitro melanogenesis in primary melanocytes
[2] = system: 3-D dark pigmented epidermis model Melanoderm™ MEL0300B tissue; assay: in vitro melanogenesis in 3-D pigmented epidermis model

Measured: inhibition of melanogenesis

COc1ccc(C[C@@H]2c3cc(Oc4cc(C[C@@H]5c6cc(OC)c(OC)cc6CCN5C)ccc4O)c(OC)cc3CCN2C)cc1 [Neferine, neferine]
significantly inhibit melanogenesis: all assays above

COc1cc2c(cc1OC)[C@@H](Cc1ccc(O)c(Oc3cc4c(cc3OC)CCN(C)[C@@H]4Cc3ccc(O)cc3)c1)N(C)CC2 [liensinine]
significantly inhibit melanogenesis: all assays above
